From patent US11020405B2, “Method for prevention or treatment of diabetic complications” (KANGWON NATIONAL UNIVERSITY UNIVERSITY-INDUSTRY COOPERATION …, priority 2017, dated 2021)

Tests used:
β-catenin = experiment: Analysis of adherens junction (β-catenin staining); assay type: cell-based, human; conditions: HRECs, 10 ng/mL VEGF 90 min with 20 μM midazolam, 5 μM BAPTA-AM, 1 mM NAC, 0.5 μM Trolox, 50 μM cystamine or 20 μM MDC (FIGS. 8, 9)
Experimental: Purchased from Applied Cell Biology Research Institute (Cell Systems, Kirkland, Wash.), human retinal endothelial cells (HRECs) were cultured in an M19 medium, containing 20% FBS, 3 ng/mL bFGF, 5 U/mL heparin, 100 U/mL penicillin and […], in a 2% gelatin-coated plate.
Before the following Test Examples 2 to 7, the HRECs were cultured for 6 hr in a medium containing 1% FBS and an antibiotic agent, thus preparing HRECs of Test Example 1.
The HRECs of Test Example 1 were subjected to the respective treatments below and cultured for 30 min. Here, treatment with 10 ng/mL VEGF was performed for 90 min. Thereafter, the HRECs were treated with 1 mM 5-(biotinamido)pentylamine, incubated for 1 hr, fixed with 3.7% formaldehyde, treated with 0.2% triton X-100, treated with a blocking solution containing 138 mM NaCl, 0.1% Tween 20 and 2% BSA dissolved in a 20 mM Tris (pH 7.6) buffer, incubated for 30 min, incubated with a monoclonal β-catenin antibody (1:200; Santa Cruz Biotechnology) for 12 hr or more, incubated with a FITC-conjugated goat anti-mouse antibody, and measured using confocal microscopy. Some (the following i), ii), iii), iv)) of the results are shown in FIG. 8, and the β-catenin concentrations in the portions represented by the dotted lines in FIG. 8 are shown in FIG. 9. With reference to FIG. 9, 10 randomly selected cells were measured to determine the fluorescence intensity of single cells and thus quantify β-catenin.
β-catenin, which is a protein that mediates adherens junction like VE-cadherin, was analyzed to evaluate adherens junction.

[1] = tested on: retinal vessels of diabetic mice; experiment: Fluorescein angiography for mouse model (retinal vascular leakage); assay type: in vivo, C57BL/6 mice; conditions: intravitreal 2 μL of 2 mM midazolam, 2 μM cystamine or 500 mM MDC (FIGS. 16, 17)
kidneys of diabetic mice = experiment: Hyperglycemia-induced renal vascular leakage in diabetic mice (FITC-dextran); assay type: in vivo, C57BL/6 mice; conditions: 10 mg/kg midazolam intraperitoneal daily for 2 days (FIG. 20)
Experimental: FIGS. 20A and 20B show the preventive effects of midazolam against hyperglycemia-induced renal vascular leakage in diabetic mice. Six-week-old male C57BL/6 mice were administered with streptozotocin (150 mg/kg body weight) to give diabetic mouse models. Two weeks after streptozotocin injection, diabetic mice were administered 10 mg/kg midazolam by intraperitoneal injection daily for 2 days, and vascular leakage was investigated. The body weight of mice were measure in normal (19.9±0.3 g), diabetic (17.7±0.3 g), and midazolam supplemented diabetic mice (17.7±0.3 g). Blood glucose levels were also monitored in normal (123.5±6.5 mg/dL), diabetic (505.0±89.0 mg/dL), and midazolam supplemented diabetic mice (500.3±63.3 mg/dL). The mice were anesthetized with 3% isoflurane, and 1.25 mg of FITC-dextran was injected into the right ventricle of each mouse and allowed to circulate for 5 min. The kidneys were dissected, fixed, and embedded in OCT compound. Cryosections of kidneys were stained with nuclear counterstaining with DAPI. Representative images of vascular leakage in kidneys are shown in additional FIG. 20A. Scale bars, 100 μm. The results of vascular leakage quantitatively analyzed by measuring the fluorescence intensity of FITC-dextran in the kidneys are shown in additional FIG. 20B. (n=4 for normal and diabetic, n=6 for diabetic+Midazolam).

lungs of diabetic mice = experiment: Hyperglycemia-induced pulmonary vascular leakage in diabetic mice (FITC-dextran); assay type: in vivo, C57BL/6 mice; conditions: 10 mg/kg midazolam intraperitoneal daily for 2 days (FIG. 21)
Experimental: FIGS. 21A and 21B show the preventive effects of midazolam against hyperglycemia-induced pulmonary vascular leakage in diabetic mice. Six-week-old male C57BL/6 mice were administered with streptozotocin (150 mg/kg body weight) to give diabetic mouse models. Two weeks after streptozotocin injection, diabetic mice were administered 10 mg/kg midazolam by intraperitoneal injection daily for 2 days, and vascular leakage was investigated. The body weight of mice were measure in normal (19.9±0.3 g), diabetic (17.7±0.3 g), and midazolam supplemented diabetic mice (17.6±0.3 g). Blood glucose levels were also monitored in normal (123.5±6.5 mg/dL), diabetic (505.0±89.0 mg/dL), and midazolam supplemented diabetic mice (500.3±63.3 mg/dL). The mice were anesthetized with 3% isoflurane, and 1.25 mg of FITC-dextran was injected into the right ventricle of each mouse and allowed to circulate for 5 min. The lungs were dissected, fixed, and embedded in OCT compound. Cryosections of lungs were stained with isolectin B4 and DAPI. Representative images of vascular leakage in lungs are shown in additional FIG. 21A. Scale bars, 100 μm. The results of vascular leakage quantitatively analyzed by measuring the fluorescence intensity of FITC-dextran in the lungs are shown in additional FIG. 21B (n=4 for normal and diabetic, n=6 for diabetic+Midazolam).

B16F10 cells = experiment: Hyperglycemia-induced cancer metastasis in lungs of diabetic mice (melanoma nodules); assay type: in vivo, C57BL/6 mice; conditions: 10 mg/kg midazolam intraperitoneal daily for 14 days, B16F10 cells intravenously (FIG. 22)
Experimental: FIGS. 22A and 22B show the preventive effects of midazolam against hyperglycemia-induced cancer metastasis in the lungs of diabetic mice. Six-week-old male C57BL/6 mice were administered with streptozotocin (150 mg/kg) to give diabetic mouse models. One weeks after streptozotocin injection, diabetic mice were administered 10 mg/kg midazolam by intraperitoneal injection daily for 14 days, and diabetic and midazolam supplemented diabetic mice were intravenously injected with B16F10 cells (5×10^5) in PBS. The weight of mice were measure in diabetic (16.4±0.2 g) and midazolam supplemented diabetic mice (16.2±0.5 g). Blood glucose levels were also monitored in diabetic (511.0±10.0 mg/dL) and midazolam supplemented diabetic mice (515.7±3.4 mg/dL). Two weeks later, the mice were euthanized by cervical dislocation, and the lungs were removed and bleached in Fekete's solution (70% ethanol, 3.7% paraformaldehyde, 0.75 M glacial acetic acid). Representative images of melanoma metastasis in lungs are shown in additional FIG. 22A. The results of melanoma metastasis assessed by counting metastatic lung nodules under a dissection microscope are shown in additional FIG. 22B (n=2/group).

Cc1ncc2n1-c1ccc(Cl)cc1C(c1ccccc1F)=NC2 [midazolam]
β-catenin concentration / adherens junction disruption due to VEGF (β-catenin): exhibited the effect of preventing the adherens junction disruption due to VEGF
retinal vascular leakage compared to normal mice [1]: vascular leakage was prevented
renal vascular leakage (FITC-dextran extravasation) (kidneys of diabetic mice): blocked by midazolam administration
pulmonary vascular leakage (FITC-dextran extravasation) (lungs of diabetic mice): blocked by midazolam administration
number of metastatic nodules in the lungs (B16F10 cells): the number of metastatic nodules in the lungs of diabetic mice was suppressed
